Data on 11 compounds can be found in ChEMBL document CHEMBL5465560, “Selectivity Literature for EUbOPEN Chemogenomic Library” (2024).

Test [1] deals with 5-hydroxytryptamine receptor 1B (Homo sapiens) (UniProt P28222). The test is described as follows: Selectivity interaction (Panel of kinases, GPCRs, ion channels and transporters (enzymatic assay)) EUB0000266bCl HTR1B.
The target in test [2] is T1, Ephrin type-B receptor 1 (Homo sapiens) (UniProt P54762).
T1 sequence (whole entry): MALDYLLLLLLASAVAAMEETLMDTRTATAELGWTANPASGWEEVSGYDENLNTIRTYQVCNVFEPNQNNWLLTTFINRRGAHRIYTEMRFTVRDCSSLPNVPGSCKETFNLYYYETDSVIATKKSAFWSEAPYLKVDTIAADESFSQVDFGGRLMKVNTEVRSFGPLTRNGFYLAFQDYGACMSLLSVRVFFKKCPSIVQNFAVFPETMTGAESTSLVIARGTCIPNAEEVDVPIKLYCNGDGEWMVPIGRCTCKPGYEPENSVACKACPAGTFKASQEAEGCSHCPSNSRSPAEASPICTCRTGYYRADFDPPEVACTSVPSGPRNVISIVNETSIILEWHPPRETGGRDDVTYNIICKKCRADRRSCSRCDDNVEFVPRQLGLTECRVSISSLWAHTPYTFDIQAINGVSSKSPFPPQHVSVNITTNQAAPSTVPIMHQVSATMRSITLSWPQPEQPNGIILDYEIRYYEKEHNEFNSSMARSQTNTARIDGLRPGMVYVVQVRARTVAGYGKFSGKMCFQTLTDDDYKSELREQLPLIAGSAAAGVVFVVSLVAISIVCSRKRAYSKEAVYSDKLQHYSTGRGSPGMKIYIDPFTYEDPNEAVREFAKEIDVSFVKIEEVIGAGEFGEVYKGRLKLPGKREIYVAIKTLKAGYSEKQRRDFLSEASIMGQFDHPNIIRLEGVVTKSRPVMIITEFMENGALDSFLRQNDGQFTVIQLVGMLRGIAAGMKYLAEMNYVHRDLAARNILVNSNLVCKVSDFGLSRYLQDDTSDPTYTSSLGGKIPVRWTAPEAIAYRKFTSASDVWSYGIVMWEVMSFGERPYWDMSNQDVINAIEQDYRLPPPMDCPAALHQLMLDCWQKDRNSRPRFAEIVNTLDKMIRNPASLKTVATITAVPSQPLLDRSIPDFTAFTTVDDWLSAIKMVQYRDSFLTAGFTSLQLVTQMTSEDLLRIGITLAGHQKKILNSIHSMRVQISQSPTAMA
The test is described as follows: Selectivity interaction (ProQinase) EUB0000171b EPHB1.

In test [3] the target is T2, Cyclin-dependent kinase 11A (Homo sapiens) (UniProt Q9UQ88).
T2 sequence (whole entry): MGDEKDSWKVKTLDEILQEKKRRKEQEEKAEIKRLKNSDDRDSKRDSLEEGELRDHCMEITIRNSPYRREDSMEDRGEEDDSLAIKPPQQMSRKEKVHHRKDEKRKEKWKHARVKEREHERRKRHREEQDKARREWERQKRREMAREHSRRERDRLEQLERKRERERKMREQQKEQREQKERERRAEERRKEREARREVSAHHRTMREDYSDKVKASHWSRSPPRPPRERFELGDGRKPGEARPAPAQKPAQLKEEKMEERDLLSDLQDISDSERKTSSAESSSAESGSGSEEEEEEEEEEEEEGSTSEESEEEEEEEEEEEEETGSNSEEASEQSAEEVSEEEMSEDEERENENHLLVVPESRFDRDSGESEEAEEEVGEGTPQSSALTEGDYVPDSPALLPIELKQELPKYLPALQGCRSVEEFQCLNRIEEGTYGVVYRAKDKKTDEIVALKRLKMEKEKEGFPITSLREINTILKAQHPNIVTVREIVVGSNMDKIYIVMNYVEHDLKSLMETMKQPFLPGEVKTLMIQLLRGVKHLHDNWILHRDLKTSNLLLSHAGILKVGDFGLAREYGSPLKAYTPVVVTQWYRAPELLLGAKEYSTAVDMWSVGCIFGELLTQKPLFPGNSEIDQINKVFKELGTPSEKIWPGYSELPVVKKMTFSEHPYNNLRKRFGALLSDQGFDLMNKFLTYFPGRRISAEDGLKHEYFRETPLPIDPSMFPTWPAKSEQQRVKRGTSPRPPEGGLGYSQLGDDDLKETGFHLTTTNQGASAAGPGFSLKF
Particulars: at 10 µM.

Test [4] has as its target Tyrosine-protein kinase Lyn (Homo sapiens, UniProt P07948). Particulars: at 10 µM.
For test [5], the target named is T3, Alpha-2A adrenergic receptor (Homo sapiens) (UniProt P08913).
T3 sequence (whole entry): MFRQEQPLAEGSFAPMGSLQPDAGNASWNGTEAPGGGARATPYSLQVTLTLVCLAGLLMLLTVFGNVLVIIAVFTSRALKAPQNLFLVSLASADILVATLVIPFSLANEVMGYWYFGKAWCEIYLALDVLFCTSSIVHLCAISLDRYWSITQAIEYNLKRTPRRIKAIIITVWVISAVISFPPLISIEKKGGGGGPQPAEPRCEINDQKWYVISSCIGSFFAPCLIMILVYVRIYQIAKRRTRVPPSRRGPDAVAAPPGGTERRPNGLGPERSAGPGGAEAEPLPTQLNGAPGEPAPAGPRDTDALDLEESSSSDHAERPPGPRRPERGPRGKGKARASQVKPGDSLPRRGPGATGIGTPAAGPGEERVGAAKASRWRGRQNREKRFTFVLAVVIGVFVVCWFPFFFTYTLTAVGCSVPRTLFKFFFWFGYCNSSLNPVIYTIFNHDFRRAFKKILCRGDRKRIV
Description: Selectivity interaction (GPCR panel (PDSP screen)) EUB0001079a ADRA2A. Conditions: at 10 µM.

Test [6] deals with Tyrosine-protein kinase Lck (Homo sapiens, UniProt P06239). The test is described as follows: Selectivity interaction (Panel of kinases, GPCRs, ion channels and transporters (enzymatic assay)) EUB0000223bCl LCK.
In test [7] the target is Serine/threonine-protein kinase 32A (Homo sapiens) (UniProt Q8WU08). Description: Selectivity interaction (KinomeScan (DiscoverX)) EUB0000695a STK32A. Conditions: at 100 nM.
Serine/threonine-protein kinase 32A (Homo sapiens), sequence (Q8WU08 whole entry): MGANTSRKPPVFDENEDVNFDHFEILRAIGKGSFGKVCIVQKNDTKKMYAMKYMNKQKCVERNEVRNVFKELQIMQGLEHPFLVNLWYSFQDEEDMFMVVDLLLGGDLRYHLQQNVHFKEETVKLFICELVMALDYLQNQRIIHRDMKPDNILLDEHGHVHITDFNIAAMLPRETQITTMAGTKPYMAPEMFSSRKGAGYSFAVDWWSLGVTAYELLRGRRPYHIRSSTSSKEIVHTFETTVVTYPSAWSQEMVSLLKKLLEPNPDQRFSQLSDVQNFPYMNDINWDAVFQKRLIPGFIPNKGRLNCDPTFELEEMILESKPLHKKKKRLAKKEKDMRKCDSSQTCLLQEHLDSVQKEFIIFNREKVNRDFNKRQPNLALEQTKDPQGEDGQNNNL
The target in test [8] is Tyrosine-protein kinase Fgr (Homo sapiens) (UniProt P09769). The test is described as follows: Selectivity interaction (KinomeScan (DiscoverX)) EUB0000045b FGR.
Tyrosine-protein kinase Fgr (Homo sapiens), sequence (P09769 2-529 limits assumed): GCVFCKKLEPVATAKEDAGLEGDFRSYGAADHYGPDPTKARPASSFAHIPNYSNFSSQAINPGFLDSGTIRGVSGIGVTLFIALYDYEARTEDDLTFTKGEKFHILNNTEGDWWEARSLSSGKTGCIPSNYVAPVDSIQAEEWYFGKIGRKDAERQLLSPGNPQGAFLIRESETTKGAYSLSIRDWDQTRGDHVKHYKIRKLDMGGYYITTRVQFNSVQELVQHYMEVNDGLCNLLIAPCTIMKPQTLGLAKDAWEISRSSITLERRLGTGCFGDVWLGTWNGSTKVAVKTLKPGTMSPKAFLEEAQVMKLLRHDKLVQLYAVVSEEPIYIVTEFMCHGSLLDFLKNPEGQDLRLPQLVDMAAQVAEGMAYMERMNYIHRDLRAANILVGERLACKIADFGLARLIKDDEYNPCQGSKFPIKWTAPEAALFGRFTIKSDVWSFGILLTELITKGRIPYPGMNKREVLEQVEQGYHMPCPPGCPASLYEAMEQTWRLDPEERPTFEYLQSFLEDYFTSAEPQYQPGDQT
Test [9] deals with Histone-lysine N-methyltransferase, H3 lysine-79 specific (Homo sapiens, UniProt Q8TEK3). Conditions: at 1 µM.
Histone-lysine N-methyltransferase, H3 lysine-79 specific, sequence (Q8TEK3 whole entry, looked up): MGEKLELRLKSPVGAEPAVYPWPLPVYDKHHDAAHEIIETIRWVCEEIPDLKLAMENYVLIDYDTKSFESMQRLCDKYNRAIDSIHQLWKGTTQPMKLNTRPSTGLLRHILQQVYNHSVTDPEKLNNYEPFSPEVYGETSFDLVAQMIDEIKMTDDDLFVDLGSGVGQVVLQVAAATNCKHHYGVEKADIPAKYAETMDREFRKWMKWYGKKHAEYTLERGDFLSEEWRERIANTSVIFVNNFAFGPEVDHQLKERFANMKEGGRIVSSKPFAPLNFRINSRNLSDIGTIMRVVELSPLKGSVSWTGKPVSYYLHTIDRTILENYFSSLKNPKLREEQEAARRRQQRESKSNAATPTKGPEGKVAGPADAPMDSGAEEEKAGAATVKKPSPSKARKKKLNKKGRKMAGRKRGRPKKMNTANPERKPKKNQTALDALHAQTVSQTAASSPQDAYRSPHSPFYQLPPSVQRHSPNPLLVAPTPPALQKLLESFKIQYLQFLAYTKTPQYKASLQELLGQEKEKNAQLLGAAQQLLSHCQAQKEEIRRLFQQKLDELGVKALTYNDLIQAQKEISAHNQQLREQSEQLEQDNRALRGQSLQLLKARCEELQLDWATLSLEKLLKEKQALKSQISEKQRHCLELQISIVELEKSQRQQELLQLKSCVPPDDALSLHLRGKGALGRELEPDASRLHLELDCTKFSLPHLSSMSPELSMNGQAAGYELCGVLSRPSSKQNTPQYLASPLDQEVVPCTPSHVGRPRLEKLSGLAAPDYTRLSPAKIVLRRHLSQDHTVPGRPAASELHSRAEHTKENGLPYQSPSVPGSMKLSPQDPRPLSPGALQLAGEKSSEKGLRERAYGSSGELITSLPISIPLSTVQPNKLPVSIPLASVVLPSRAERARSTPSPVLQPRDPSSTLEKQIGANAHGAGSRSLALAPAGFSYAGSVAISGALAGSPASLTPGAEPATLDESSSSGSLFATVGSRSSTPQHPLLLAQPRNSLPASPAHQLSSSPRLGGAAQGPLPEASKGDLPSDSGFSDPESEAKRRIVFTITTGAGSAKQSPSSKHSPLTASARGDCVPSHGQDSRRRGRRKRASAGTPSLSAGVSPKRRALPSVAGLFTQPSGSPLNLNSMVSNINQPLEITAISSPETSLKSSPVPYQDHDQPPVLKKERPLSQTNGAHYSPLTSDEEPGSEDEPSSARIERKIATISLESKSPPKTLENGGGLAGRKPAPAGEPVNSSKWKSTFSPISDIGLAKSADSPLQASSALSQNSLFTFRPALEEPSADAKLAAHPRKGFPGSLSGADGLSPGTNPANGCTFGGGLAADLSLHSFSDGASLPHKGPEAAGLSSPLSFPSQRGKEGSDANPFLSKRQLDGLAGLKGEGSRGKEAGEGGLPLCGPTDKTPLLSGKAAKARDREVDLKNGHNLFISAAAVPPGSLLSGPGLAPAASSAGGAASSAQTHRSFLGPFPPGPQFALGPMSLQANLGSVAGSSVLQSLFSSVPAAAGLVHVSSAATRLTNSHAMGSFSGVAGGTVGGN
In test [10] the target is Protein kinase C theta type (Homo sapiens, UniProt Q04759). The test is described as follows: Selectivity interaction (KinomeScan (DiscoverX)) EUB0000595a PRKCQ. Particulars: at 10 µM.
Protein kinase C theta type, sequence (Q04759 whole entry, looked up): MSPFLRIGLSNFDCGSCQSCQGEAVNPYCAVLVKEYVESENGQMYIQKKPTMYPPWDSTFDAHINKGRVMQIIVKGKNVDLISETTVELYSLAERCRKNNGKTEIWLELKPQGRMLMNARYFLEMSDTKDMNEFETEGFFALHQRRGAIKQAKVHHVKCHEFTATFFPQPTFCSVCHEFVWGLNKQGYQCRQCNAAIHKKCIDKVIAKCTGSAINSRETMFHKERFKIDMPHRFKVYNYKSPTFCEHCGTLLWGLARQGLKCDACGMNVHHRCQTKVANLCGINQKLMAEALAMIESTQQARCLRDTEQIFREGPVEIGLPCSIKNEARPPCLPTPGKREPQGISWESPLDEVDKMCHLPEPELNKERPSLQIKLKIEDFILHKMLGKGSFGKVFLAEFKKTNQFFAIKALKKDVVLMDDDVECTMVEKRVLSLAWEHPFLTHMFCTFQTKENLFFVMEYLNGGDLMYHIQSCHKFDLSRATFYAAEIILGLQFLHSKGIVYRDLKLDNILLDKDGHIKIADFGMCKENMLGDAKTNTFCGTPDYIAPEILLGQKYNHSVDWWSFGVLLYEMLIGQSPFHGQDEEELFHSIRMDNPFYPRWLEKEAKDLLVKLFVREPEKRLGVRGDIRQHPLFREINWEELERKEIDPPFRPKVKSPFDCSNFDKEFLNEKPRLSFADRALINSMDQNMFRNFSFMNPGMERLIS
In test [11] the target is NT-3 growth factor receptor (Homo sapiens, UniProt Q16288). Description: Selectivity interaction (KinomeScan (DiscoverX)) EUB0000595a NTRK3. Conditions: at 10 µM.
NT-3 growth factor receptor, sequence (Q16288 32-839 limits assumed): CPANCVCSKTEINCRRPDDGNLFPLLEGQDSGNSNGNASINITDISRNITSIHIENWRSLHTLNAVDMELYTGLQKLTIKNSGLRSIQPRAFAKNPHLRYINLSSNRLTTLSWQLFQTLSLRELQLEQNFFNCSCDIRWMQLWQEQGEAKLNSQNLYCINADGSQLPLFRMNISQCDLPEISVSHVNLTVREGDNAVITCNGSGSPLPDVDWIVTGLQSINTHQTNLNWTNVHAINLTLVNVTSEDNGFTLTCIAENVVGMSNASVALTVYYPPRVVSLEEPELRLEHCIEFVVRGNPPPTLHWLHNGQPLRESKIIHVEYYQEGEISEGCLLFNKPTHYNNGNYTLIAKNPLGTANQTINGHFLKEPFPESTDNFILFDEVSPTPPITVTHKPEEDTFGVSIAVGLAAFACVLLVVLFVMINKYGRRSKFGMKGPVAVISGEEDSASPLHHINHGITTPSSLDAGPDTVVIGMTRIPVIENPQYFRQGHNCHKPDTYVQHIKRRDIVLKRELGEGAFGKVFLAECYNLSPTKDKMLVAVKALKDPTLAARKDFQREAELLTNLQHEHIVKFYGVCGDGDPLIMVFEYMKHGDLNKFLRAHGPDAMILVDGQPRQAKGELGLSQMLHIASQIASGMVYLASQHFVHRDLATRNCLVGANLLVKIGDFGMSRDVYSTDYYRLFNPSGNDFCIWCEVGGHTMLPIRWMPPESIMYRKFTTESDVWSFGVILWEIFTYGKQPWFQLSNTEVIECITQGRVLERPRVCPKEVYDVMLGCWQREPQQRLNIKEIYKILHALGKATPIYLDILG
Test [12] addresses Cyclin-dependent kinase 9 (Homo sapiens, UniProt P50750). The test is described as follows: Selectivity interaction (Kinase panel (KiNativ target engagement assay in Jurkat cells)) EUB0001635a CDK9. It is filed as cell-based. Particulars: at 1 µM.

Structures are written as SMILES.

5-hydroxytryptamine receptor 1B (Homo sapiens), sequence (P28222 whole entry): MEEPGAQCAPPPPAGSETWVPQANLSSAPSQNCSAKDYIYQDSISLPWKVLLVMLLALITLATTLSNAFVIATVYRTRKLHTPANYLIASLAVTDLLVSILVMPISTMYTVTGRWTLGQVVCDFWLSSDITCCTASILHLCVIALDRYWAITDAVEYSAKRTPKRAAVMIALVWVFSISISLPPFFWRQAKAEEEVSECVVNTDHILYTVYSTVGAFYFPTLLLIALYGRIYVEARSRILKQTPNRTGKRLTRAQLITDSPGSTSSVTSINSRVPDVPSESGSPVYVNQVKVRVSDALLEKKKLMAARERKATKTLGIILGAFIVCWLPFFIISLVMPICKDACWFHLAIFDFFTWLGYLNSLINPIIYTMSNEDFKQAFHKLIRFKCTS
Tyrosine-protein kinase Lyn, sequence (P07948 2-512 limits assumed): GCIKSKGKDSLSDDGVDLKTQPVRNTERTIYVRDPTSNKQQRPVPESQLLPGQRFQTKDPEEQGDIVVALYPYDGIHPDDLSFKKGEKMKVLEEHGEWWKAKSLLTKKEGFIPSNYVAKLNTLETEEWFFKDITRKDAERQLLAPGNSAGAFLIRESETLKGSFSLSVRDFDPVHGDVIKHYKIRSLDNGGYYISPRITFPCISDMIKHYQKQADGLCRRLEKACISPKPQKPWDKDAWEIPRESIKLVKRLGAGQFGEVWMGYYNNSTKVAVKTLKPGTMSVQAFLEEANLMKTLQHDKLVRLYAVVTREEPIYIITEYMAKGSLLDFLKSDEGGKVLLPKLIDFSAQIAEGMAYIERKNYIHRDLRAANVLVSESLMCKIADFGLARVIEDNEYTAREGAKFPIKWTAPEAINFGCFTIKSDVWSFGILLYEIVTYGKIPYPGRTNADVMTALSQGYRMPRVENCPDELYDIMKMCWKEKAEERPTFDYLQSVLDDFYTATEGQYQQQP

In the case of `CCn1c(-c2nc3cc(C(=O)N4CCCC(N)C4)ccc3n2C)cc2ccccc21` (centres undefined), the pXC50 in test [1] is less than 4.5 M.
`C=CC(=O)Nc1cccc(C(=O)Nc2ccc(Nc3cc(-c4[nH]c(SC)nc4C)ccn3)cc2)c1`: the % of control is 83% in [2] (at 1 µM) and 82% in test [2] (at 5 µM).
As to `Cc1cc([C@@H](C)Nc2ccccc2C(=O)O)c2nc(N3CCOCC3)cc(=O)n2c1` [AZD-6482], the % of control in test [3] was 100%.
In test [4], `CCN(CC)CCCCNc1ncc2cc(-c3cc(OC)cc(OC)c3)c(NC(=O)NC(C)(C)C)nc2n1` had a % of control of 100%.
`Nc1cnc(N2CCc3cc(S(=O)(=O)Nc4c(F)cc(Cl)cc4F)cc(N4CCCC4=O)c32)nc1` [TP-020n]: in [5], the % of inhibition is -10.1%.
The compound `COc1cc(C(=O)N2CC[C@@H](O)[C@@H](N)C2)cc2nc(-c3cc4ccccc4n3CC3CC3)n(C)c12` returned a pXC50 in [6] of less than 4.5 M.
`Cc1cc(F)c(C(=O)Nc2cccc(-c3nncn3C(C)C)n2)cc1-n1cnc(C2CC2)c1` showed a % of control in test [7] of 100%.
`C=CC(=O)Nc1cc(-n2c(=O)ccc3cnc4ccc(-c5ccc(NS(C)(=O)=O)cc5)cc4c32)ccc1C`: the % of control in test [8] (at 1 µM) was 72%; in test [8] (at 10 µM), 79%.
Compound `CNCCN1CCC(c2cc(CN(C)C(=O)c3cccc(Oc4ccccc4)c3)ccn2)CC1` gave a % activity in test [9] greater than 90%.
On to `COCC(=O)NC/C=C/c1ccc2ncnc(Nc3ccc(Oc4ccc(C)nc4)c(C)c3)c2c1` [CP-724714], for which the % of control in test [10] amounted to 100%; in [11], 93%.
In the case of `C=CC(=O)Nc1ccc(C(=O)Nc2[nH]nc3c2CN(C(=O)N[C@H](CN(C)C)c2ccccc2)C3(C)C)cc1`, the % of engagement in [12] is -78.1%.
